Assay results reported in patent US20080242663A1, “NOVEL PYRIMIDINE DERIVATIVES 698” (ASTRAZENECA AB, priority 2007, published 2008).

molecular target: T1, recombinant EphB4 (Homo sapiens, UniProt P54760); assay: In vitro EphB4 enzyme assay (Alphascreen); format: biochemical
T1 construct: amino acids 563-987; Swiss-Prot Acc; No. P54760; purchased ProQinase GmbH 0178-0000-3
T1 sequence (P54760 563-987): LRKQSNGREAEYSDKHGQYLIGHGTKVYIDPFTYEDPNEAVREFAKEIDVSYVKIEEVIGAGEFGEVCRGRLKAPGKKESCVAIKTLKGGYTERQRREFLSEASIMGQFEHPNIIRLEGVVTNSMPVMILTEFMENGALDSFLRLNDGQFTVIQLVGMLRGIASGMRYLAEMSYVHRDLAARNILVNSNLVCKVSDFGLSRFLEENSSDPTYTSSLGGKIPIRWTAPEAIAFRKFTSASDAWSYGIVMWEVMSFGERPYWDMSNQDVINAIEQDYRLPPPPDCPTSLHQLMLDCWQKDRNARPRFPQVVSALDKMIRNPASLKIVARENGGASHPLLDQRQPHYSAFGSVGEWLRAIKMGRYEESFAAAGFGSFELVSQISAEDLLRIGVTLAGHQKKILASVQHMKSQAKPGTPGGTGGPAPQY
Protocol: This assay detects inhibitors of EphB4-mediated phosphorylation of a polypeptide substrate using Alphascreen™ luminescence detection technology. Briefly, recombinant EphB4 was incubated with a biotinylated-polypeptide substrate (biotin-poly-GAT) in presence of magnesium-ATP. The reaction was stopped by addition of EDTA, together with streptavidin-coated donor beads which bind the biotin-substrate containing any phosphorylated tyrosine residues. Anti-phosphotyrosine antibodies present on acceptor beads bind to phosphorylated substrate, thus bringing the donor & acceptor beads into close proximity. Subsequent excitation of the donor beads at 680 nm generated singlet oxygen species that interact with a chemiluminescer on the acceptor beads, leading to light emission at 520-620 nm. The signal intensity is directly proportional to the level of substrate phosphorylation and thus inhibition is measured by a decrease in signal.
Assay plates were then incubated at room temperature for 1 hr. […] The plates were sealed under natural lighting conditions, wrapped in aluminium foil and incubated in the dark for a further 20 hrs.
The resulting assay signal was determined on the Perkin Elmer EnVision plate reader. The minimum value was subtracted from all values, and the signal plotted against compound concentration to generate IC50 data.

Structure (SMILES) | IC50 [nM]
COc1cc(N(C)c2ccnc(Nc3cc(N4CCOCC4)cc(N4CCOCC4)c3)n2)ccc1C#N [Example 15.2, 4-[[2-[(3,5-dimorpholin-4-ylphenyl)amino]pyrimidin-4-yl]-methyl-amino]-2-methoxy-benzonitrile] | 206
COc1ccc(OC)c(N(C)c2ccnc(Nc3cc(N4CCOCC4)cc(N4CCOCC4)c3)n2)c1 [Example 15.4, N′-(2,5-dimethoxyphenyl)-N-(3,5-dimorpholin-4-ylphenyl)-N′-methyl-pyrimidine-2,4-diamine] | 680
COc1cc(OC)cc(N(C)c2ccnc(Nc3cc(N4CCOCC4)cc(N4CCOCC4)c3)n2)c1 [Example 15.5, N′-(3,5-dimethoxyphenyl)-N-(3,5-dimorpholin-4-ylphenyl)-N′-methyl-pyrimidine-2,4-diamine] | 1120
CN(c1ccc(F)c(F)c1)c1ccnc(Nc2cc(N3CCOCC3)cc(N3CCOCC3)c2)n1 [Example 15.7, N′-(3,4-difluorophenyl)-N-(3,5-dimorpholin-4-ylphenyl)-N′-methyl-pyrimidine-2,4-diamine] | 707
CN(c1ccnc(Nc2cc(N3CCOCC3)cc(N3CCOCC3)c2)n1)c1cc(F)ccc1F [Example 15.8, N′-(2,5-difluorophenyl)-N-(3,5-dimorpholin-4-ylphenyl)-N′-methyl-pyrimidine-2,4-diamine] | 338
COc1cc(N(C)c2ccnc(Nc3cc(N4CCOCC4)cc(N4CCOCC4)c3)n2)ccc1C [Example 15.10, N-(3,5-dimorpholin-4-ylphenyl)-N′-(3-methoxy-4-methyl-phenyl)-N′-methyl-pyrimidine-2,4-diamine] | 7730
COc1ccc(N(C)c2ccnc(Nc3cc(N4CCOCC4)cc(N4CCOCC4)c3)n2)c(C)c1 [Example 15.11, N-(3,5-dimorpholin-4-ylphenyl)-N′-(4-methoxy-2-methyl-phenyl)-N′-methyl-pyrimidine-2,4-diamine] | 1320
COc1cc(C)ccc1N(C)c1ccnc(Nc2cc(N3CCOCC3)cc(N3CCOCC3)c2)n1 [Example 15.12, N-(3,5-dimorpholin-4-ylphenyl)-N′-(2-methoxy-4-methyl-phenyl)-N′-methyl-pyrimidine-2,4-diamine] | 1400
COc1ccc(C)cc1N(C)c1ccnc(Nc2cc(N3CCOCC3)cc(N3CCOCC3)c2)n1 [Example 15.13, N-(3,5-dimorpholin-4-ylphenyl)-N′-(2-methoxy-5-methyl-phenyl)-N′-methyl-pyrimidine-2,4-diamine] | 722
COc1ccc(N(C)c2ccnc(Nc3cc(N4CCOCC4)cc(N4CCOCC4)c3)n2)cc1Cl [Example 15.14, N′-(3-chloro-4-methoxy-phenyl)-N-(3,5-dimorpholin-4-ylphenyl)-N′-methyl-pyrimidine-2,4-diamine] | 500
CN(c1ccnc(Nc2cc(N3CCOCC3)cc(N3CCOCC3)c2)n1)c1cccc(Cl)c1F [Example 15.15, N′-(3-chloro-2-fluoro-phenyl)-N-(3,5-dimorpholin-4-ylphenyl)-N′-methyl-pyrimidine-2,4-diamine] | 696
CN(c1ccc(Cl)c(F)c1)c1ccnc(Nc2cc(N3CCOCC3)cc(N3CCOCC3)c2)n1 [Example 15.16, N′-(4-chloro-3-fluoro-phenyl)-N-(3,5-dimorpholin-4-ylphenyl)-N′-methyl-pyrimidine-2,4-diamine] | 634
Cc1cccc(Cl)c1N(C)c1ccnc(Nc2cc(N3CCOCC3)cc(N3CCOCC3)c2)n1 [Example 15.20, N′-(2-chloro-6-methyl-phenyl)-N-(3,5-dimorpholin-4-ylphenyl)-N′-methyl-pyrimidine-2,4-diamine] | 1750
CCOc1cc(Nc2nccc(N(C)c3cc(CO)ccc3C)n2)cc(N2CCOCC2)c1 [Example 16, [3-[[2-[(3-ethoxy-5-morpholin-4-yl-phenyl)amino]pyrimidin-4-yl]-methyl-amino]-4-methyl-phenyl]methanol] | 132
CCCOc1cc(Nc2nccc(N(C)c3cc(CO)ccc3C)n2)cc(N2CCOCC2)c1 [Example 17.1, [4-methyl-3-[methyl-[2-[(3-morpholin-4-yl-5-propoxy-phenyl)amino]pyrimidin-4-yl]amino]phenyl]methanol] | 265
Cc1ccc(CO)cc1N(C)c1ccnc(Nc2cc(OCC(C)C)cc(N3CCOCC3)c2)n1 [Example 17.3, [4-methyl-3-[methyl-[2-[[3-(2-methylpropoxy)-5-morpholin-4-yl-phenyl]amino]pyrimidin-4-yl]amino]phenyl]methanol] | 1910
Cc1ccc(CO)cc1N(C)c1ccnc(Nc2cc(OCC3CC3)cc(N3CCOCC3)c2)n1 [Example 17.4] | 1090
COC(C)CCOc1cc(Nc2nccc(N(C)c3cc(CO)ccc3C)n2)cc(N2CCOCC2)c1 (centres unmarked) [Example 17.6, [3-[[2-[[3-(3-methoxybutoxy)-5-morpholin-4-yl-phenyl]amino]pyrimidin-4-yl]-methyl-amino]-4-methyl-phenyl]methanol] | 1210
CCOCCOc1cc(Nc2nccc(N(C)c3cc(CO)ccc3C)n2)cc(N2CCOCC2)c1 [Example 17.7, [3-[[2-[[3-(2-ethoxyethoxy)-5-morpholin-4-yl-phenyl]amino]pyrimidin-4-yl]-methyl-amino]-4-methyl-phenyl]methanol] | 639
Cc1ccc(CO)cc1N(C)c1ccnc(Nc2cc(OC3CCOC3)cc(N3CCOCC3)c2)n1 (centres unmarked) [Example 17.8, [4-methyl-3-[methyl-[2-[[3-morpholin-4-yl-5-(oxolan-3-yloxy)phenyl]ami-no]pyrimidin-4-yl]amino]phenyl]methanol] | 481

The remaining compounds from weak to strong by IC50, led by results:

IC50 [nM] | Structure (SMILES)
34100 | CN(c1ccnc(Nc2cc(N3CCOCC3)cc(N3CCOCC3)c2)n1)c1ccc(Cl)cc1Cl [Example 15.1, N′-(2,4-dichlorophenyl)-N-(3,5-dimorpholin-4-ylphenyl)-N′-methyl-pyrimidine-2,4-diamine]
1730 | Cc1ccc(N(C)c2ccnc(Nc3cc(N4CCOCC4)cc(N4CCOCC4)c3)n2)cc1Cl [Example 15.19, N′-(3-chloro-4-methyl-phenyl)-N-(3,5-dimorpholin-4-ylphenyl)-N′-methyl-pyrimidine-2,4-diamine]
1390 | Cc1ccc(Cl)c(N(C)c2ccnc(Nc3cc(N4CCOCC4)cc(N4CCOCC4)c3)n2)c1 [Example 15.18, N′-(2-chloro-5-methyl-phenyl)-N-(3,5-dimorpholin-4-ylphenyl)-N′-methyl-pyrimidine-2,4-diamine]
1310 | CN(c1ccnc(Nc2cc(N3CCOCC3)cc(N3CCOCC3)c2)n1)c1cccc(Cl)c1Cl [Example 15.21, N′-(2,3-dichlorophenyl)-N-(3,5-dimorpholin-4-ylphenyl)-N′-methyl-pyrimidine-2,4-diamine]
1150 | CN(c1ccnc(Nc2cc(N3CCOCC3)cc(N3CCOCC3)c2)n1)c1ccc(Cl)cc1F [Example 15.17, N′-(4-chloro-2-fluoro-phenyl)-N-(3,5-dimorpholin-4-ylphenyl)-N′-methyl-pyrimidine-2,4-diamine]
1000 | COc1ccc(N(C)c2ccnc(Nc3cc(N4CCOCC4)cc(N4CCOCC4)c3)n2)cc1OC [Example 15.3, N′-(3,4-dimethoxyphenyl)-N-(3,5-dimorpholin-4-ylphenyl)-N′-methyl-pyrimidine-2,4-diamine]
951 | Cc1ccc(CO)cc1N(C)c1ccnc(Nc2cc(OC3CCC3)cc(N3CCOCC3)c2)n1 [Example 17.5, [3-[[2-[(3-cyclobutyloxy-5-morpholin-4-yl-phenyl)amino]pyrimidin-4-yl]-methyl-amino]-4-methyl-phenyl]methanol]
602 | CN(c1ccnc(Nc2cc(N3CCOCC3)cc(N3CCOCC3)c2)n1)c1ccc(F)c(F)c1F [Example 15.9, N-(3,5-dimorpholin-4-ylphenyl)-N′-methyl-N′-(2,3,4-trifluorophenyl)pyrimidine-2,4-diamine]
443 | Cc1ccc(CO)cc1N(C)c1ccnc(Nc2cc(O[C@H]3CCOC3)cc(N3CCOCC3)c2)n1 [Example 17.9, [4-methyl-3-[methyl-[2-[[3-morpholin-4-yl-5-[(3S)-oxolan-3-yl]oxyphenyl]ami-no]pyrimidin-4-yl]amino]phenyl]methanol]
417 | CN(c1ccnc(Nc2cc(N3CCOCC3)cc(N3CCOCC3)c2)n1)c1cccc(Cl)c1C#N [Example 15.6, 2-chloro-6-[[2-[(3,5-dimorpholin-4-ylphenyl)amino]pyrimidin-4-yl]-methyl-amino]benzonitrile]
316 | CN(c1ccc(F)c(Cl)c1)c1ccnc(Nc2cc(N3CCOCC3)cc(N3CCOCC3)c2)n1 [Example 15.22, N′-(4-fluoro-3-chloro-phenyl)-N-(3,5-dimorpholin-4-ylphenyl)-N′-methyl-pyrimidine-2,4-diamine]
171 | Cc1ccc(CO)cc1N(C)c1ccnc(Nc2cc(OC(C)C)cc(N3CCOCC3)c2)n1 [Example 17.2, [4-methyl-3-[methyl-[2-[(3-morpholin-4-yl-5-propan-2-yloxy-phenyl)amino]pyrimidin-4-yl]amino]phenyl]methanol]
